Source: the supplement of paper PMC10307832

What was measured:
Test in all cases: relative viability (nuclei count vs DMSO), 5 days (fraction); higher = more cells survive
Doramapimod + Lapatinib = compound: Cc1ccc(-n2nc(C(C)(C)C)cc2NC(=O)Nc2ccc(OCCN3CCOCC3)c3ccccc23)cc1 [Doramapimod] + CS(=O)(=O)CCNCc1ccc(-c2ccc3ncnc(Nc4ccc(OCc5cccc(F)c5)c(Cl)c4)c3c2)o1 [Lapatinib] (partner 2 µM)
How it was run: (§1)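 Relative viability divides the nuclei count in treated wells by that in vehicle wells. Lung cancer cell lines were seeded in 1536-well plates, dosed by pin tool the next day, and fixed and stained after 5 days in one step with final 0.05% Triton X-100, 1% formaldehyde and 1 ug/ml Hoechst. Dosing was a single drug or a fixed anchor-drug dose plus five library-drug doses (not always all listed) in √10 steps, and values are medians of duplicate plates imaged at 4×.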

IPA-3 + Crizotinib = compound: C1=CC=C2C(=C1)C=CC(=C2SSC3=C(C=CC4=CC=CC=C43)O)O [IPA-3] + C[C@@H](Oc1cc(-c2cnn(C3CCNCC3)c2)cnc1N)c1c(Cl)ccc(F)c1Cl [Crizotinib] (partner 1 µM)
How it was run: as §1

RAF265 + Tozasertib = compound: Cn1c(Nc2ccc(C(F)(F)F)cc2)nc2cc(Oc3ccnc(-c4ncc(C(F)(F)F)[nH]4)c3)ccc21 [RAF265] + Cc1cc(Nc2cc(N3CCN(C)CC3)nc(Sc3ccc(NC(=O)C4CC4)cc3)n2)n[nH]1 [Tozasertib] (partner 0.1 µM)
How it was run: as §1

RAF265 + Linsitinib = compound: Cn1c(Nc2ccc(C(F)(F)F)cc2)nc2cc(Oc3ccnc(-c4ncc(C(F)(F)F)[nH]4)c3)ccc21 [RAF265] + C[C@]1(O)C[C@@H](c2nc(-c3ccc4ccc(-c5ccccc5)nc4c3)c3c(N)nccn32)C1 [Linsitinib] (partner 1 µM)
How it was run: as §1

Cell Line	relative viability (Doramapimod + Lapatinib; first compound 0.02 µM)	relative viability (Doramapimod + Lapatinib; first compound 0.06325 µM)	relative viability (Doramapimod + Lapatinib; first compound 0.2 µM)	relative viability (Doramapimod + Lapatinib; first compound 0.6325 µM)	relative viability (Doramapimod + Lapatinib; first compound 2 µM)	relative viability (IPA-3 + Crizotinib; first compound 0.2 µM)	relative viability (IPA-3 + Crizotinib; first compound 0.6325 µM)	relative viability (IPA-3 + Crizotinib; first compound 2 µM)	relative viability (IPA-3 + Crizotinib; first compound 6.325 µM)	relative viability (IPA-3 + Crizotinib; first compound 20 µM)	relative viability (RAF265 + Tozasertib; first compound 0.01 µM)	relative viability (RAF265 + Tozasertib; first compound 0.03162 µM)	relative viability (RAF265 + Tozasertib; first compound 0.1 µM)	relative viability (RAF265 + Tozasertib; first compound 0.3162 µM)	relative viability (RAF265 + Tozasertib; first compound 1 µM)	relative viability (RAF265 + Linsitinib; first compound 0.01 µM)	relative viability (RAF265 + Linsitinib; first compound 0.03162 µM)	relative viability (RAF265 + Linsitinib; first compound 0.1 µM)	relative viability (RAF265 + Linsitinib; first compound 0.3162 µM)	relative viability (RAF265 + Linsitinib; first compound 1 µM)
201T	1.05	1.11	0.955	1.11	0.971	1.04	1.01	1.05	1.03	1.04	0.955	0.862	1.03	0.939	0.696	1.04	0.982	0.994	0.89	0.885
A549	0.827	0.989	0.932	1.24	0.895	0.886	0.76	0.745	0.819	0.89						0.61	0.536	0.648	0.273	0.249
A-427	1.03	1.17	1.09		1.04	1.11	0.775	0.896	0.91	1.12	0.218	0.213	0.205	0.109	0.089	1.15	1.07	1.16	0.676	0.499
ABC-1	1.03	1.15	1.17	1.54	1.35	1.12	1.17		0.981	1.06	0.17	0.202	0.178	0.158	0.24	0.875	0.803	0.933	0.661	0.407
BEN	0.728	0.687	0.746	0.475	0.717	1.01	0.905	0.98	0.788	0.961	0.441	0.575	0.468	0.554	0.407	0.897	1.01	1.12	0.939	0.791
CAL-12T	0.674	0.557	0.676	0.611	0.623	0.479	0.6	0.699	0.516	0.69	0.392	0.308	0.364	0.306	0.172	0.969	0.659	0.671	0.43	0.4
COR-L23	1.09	1.1	0.99	1.01	0.91	0.695	0.699	0.682	0.604	0.601	0.212	0.176	0.208	0.201	0.161	0.847	0.838	0.662	0.431	0.312
COR-L 105	0.368	0.385	0.37	0.336	0.367	0.954	0.757	0.704	0.788	0.964	0.435	0.423	0.341	0.451	0.317	1.17	0.882	0.976	0.725	0.504
Calu-6	1.06	1.13	1.17	1.19	0.985	1.06	0.75	0.81	0.795	0.966						0.94	0.83	0.523	0.279	0.223
ChaGo-K-1						1.32	1.08	1.17	1.09	1.23	0.215	0.246	0.217	0.243	0.235					
EBC-1	0.255	0.198	0.17	0.209	0.197	0.188	0.186	0.168	0.195	0.193						0.963	0.856	0.754	0.577	0.503
EKVX	0.194	0.189	0.202	0.251	0.59	1.24	0.965	0.951	0.799	1.22	0.376	0.344	0.469	0.377	0.306	0.98	1.02	1.04	0.534	0.822
EMC-BAC-2	0.918	0.935	0.871	1.01	0.715	0.79	0.769	0.771	0.698	0.829	0.28	0.266	0.209	0.202	0.082	0.761	0.793	0.734	0.596	0.348
EPLC-272H	0.942	0.983	0.945	0.979	0.745	1.16	0.808	0.995	0.912	1.23	0.218	0.328	0.275	0.257	0.199	1.08	1.02	1.03	0.608	0.431
H3255	0.234	0.233	0.244	0.241	0.267	1.11	0.86	0.962	0.749	1.03	0.553	0.54	0.605		0.476	1	0.942	0.929	0.137	0.716
HARA	0.606	0.713	0.794	0.968	0.637	1.21	1.22	1.09	1.14	1.24	0.12	0.0972	0.13	0.0934	0.0806	0.904	0.715	0.891	0.608	0.406
HCC-15	0.864	0.962	0.84	0.521	0.752	0.812	0.855	0.825	0.776	0.886	0.406	0.32	0.538	0.401	0.278	0.886	0.835	0.754	0.639	0.394
HCC-44	1.1	1.05	1.07	0.837	0.963	0.859	0.735	0.917	0.804	0.807	0.892	0.779	1.25	1.07	0.821	0.643	0.617	0.667	0.661	0.64
HCC-78	0.745	0.936	0.79	0.837	0.885	0.341	0.341	0.365	0.322	0.399	0.349	0.472	0.417	0.463	0.396	0.553	0.468	0.574	0.47	0.439
HCC-366	1.08	1.08	1.14	1.03	1.03	0.697	0.564	0.617	0.521	0.618	0.137	0.165	0.138	0.0437	0.0369	0.674	0.69	0.881	0.748	0.459

Cell Line	relative viability (Doramapimod + Lapatinib; first compound 0.02 µM)	relative viability (Doramapimod + Lapatinib; first compound 0.06325 µM)	relative viability (Doramapimod + Lapatinib; first compound 0.2 µM)	relative viability (Doramapimod + Lapatinib; first compound 0.6325 µM)	relative viability (Doramapimod + Lapatinib; first compound 2 µM)	relative viability (IPA-3 + Crizotinib; first compound 0.2 µM)	relative viability (IPA-3 + Crizotinib; first compound 0.6325 µM)	relative viability (IPA-3 + Crizotinib; first compound 2 µM)	relative viability (IPA-3 + Crizotinib; first compound 6.325 µM)	relative viability (IPA-3 + Crizotinib; first compound 20 µM)	relative viability (RAF265 + Tozasertib; first compound 0.01 µM)	relative viability (RAF265 + Tozasertib; first compound 0.03162 µM)	relative viability (RAF265 + Tozasertib; first compound 0.1 µM)	relative viability (RAF265 + Tozasertib; first compound 0.3162 µM)	relative viability (RAF265 + Tozasertib; first compound 1 µM)	relative viability (RAF265 + Linsitinib; first compound 0.01 µM)	relative viability (RAF265 + Linsitinib; first compound 0.03162 µM)	relative viability (RAF265 + Linsitinib; first compound 0.1 µM)	relative viability (RAF265 + Linsitinib; first compound 0.3162 µM)	relative viability (RAF265 + Linsitinib; first compound 1 µM)
HCC-827	0.2	0.272	0.17	0.352	0.201	0.927	0.89	0.865	0.873	0.859	0.412	0.421	0.445		0.361	0.968	0.973	0.978		0.762
HOP-62	0.918	1.12	0.991	0.95	0.927	1.3	0.643	1.01	1.01	0.922	0.338	0.326	0.406	0.515	0.225	0.89		1.07	0.976	0.604
IA-LM	0.897		0.841	0.763	0.669	1.25	0.683	0.904	0.553	0.555						0.641	0.532	0.536	0.732	0.404
LC-2-ad	0.87	1.03	1.1	1.05	0.643	0.499	0.523	0.419	0.477	0.488	0.529	0.459	0.507	0.356	0.335	0.807	0.762	0.727	0.316	0.293
LCLC-103H						1.07	0.947	1.03	1.15	1.1	0.472	0.48	0.42	0.424	0.227	1.03	1.14	1.1	0.944	0.641
NCI-H441						0.859	0.635	0.804	0.659	0.723	0.715	0.69	0.667	0.475	0.36	0.617	0.495	0.415	0.3	0.389
NCI-H522											0.57	0.602	0.546	0.553	0.521					
NCI-H1299	0.991	0.952	0.956	0.972	0.925	0.974	0.935	0.96	0.928	0.961						1	0.878	0.749	0.578	0.414
NCI-H1395	1.38	1.13	1.05	0.913	0.818						0.677	0.667	0.666	0.84	0.609	1.14	1	1.05	1.08	0.741
NCI-H1563	0.935	0.923	1.04	0.681	0.907	0.899	0.891	0.938	1.11	1.02						1.13	1.32	1.17	1.26	1.18
NCI-H1623											0.507	0.474	0.475		0.392					
NCI-H1648											0.425	0.431	0.598	0.466	0.417					
NCI-H1650	0.665	0.736	0.795	0.247	0.786	1.04	0.816	1.14	0.938	1.28	0.377	0.425	0.473	0.446	0.304					
NCI-H1703	1.11	0.983	0.949	0.987	0.716	0.819	0.593	0.757	0.669	0.469						0.43	0.561	0.819	0.171	0.251
NCI-H1792	0.898	0.986	0.909	0.859	0.858	1.14	1.01	1.01	0.996	1.16						0.576	0.506	0.583	0.326	0.126
NCI-H1793	0.514	0.89	0.515	0.678	0.82						0.404	0.421	0.361		0.172	0.794	0.767	0.779	0.46	0.376
NCI-H2170	0.298	0.285	0.259	0.316	0.259	1.24	1.11	1.18	1.16	1.33	0.734	0.651	0.752	0.587	0.538					
NCI-H2342											0.551	0.592	0.542	0.52	0.463					
SW 900											0.648	0.583	0.594	0.526	0.295					
